According to ChEMBL document CHEMBL4507274 (2021):

Columns and labels:
[1] = target: Alpha-1D adrenergic receptor (Homo sapiens) (UniProt P25100); conditions: Compound concentration 10.0 uM
[2] = test system: Epidermal growth factor receptor (Homo sapiens), P00533 [L858R]; conditions: Compound concentration 100.0 nM
[3] = target: cAMP-dependent protein kinase catalytic subunit alpha (Homo sapiens) (UniProt P17612); assay: PKA (h) Upstate kinase activity assay; conditions: Compound concentration 10.0 uM
SK-MEL-5 = assay: Melanoma SK-MEL-5 cell line MDS Pharma Services Proliferation Assay; format: functional, cell-based, Homo sapiens
PC-6 = assay: Lung PC-6 cell line MDS Pharma Services Proliferation Assay; format: functional, cell-based, Homo sapiens
[4] = target: Tyrosine-protein kinase ABL2 (Mus musculus) (UniProt Q4JIM5); assay: Arg (m) Upstate kinase activity assay; conditions: Compound concentration 10.0 uM
A549 = assay: Lung A549 cell line MDS Pharma Services Proliferation Assay; format: functional, cell-based, Homo sapiens
[5] = target: Tyrosine-protein kinase Blk (Mus musculus) (UniProt P16277); assay: Blk (m) Upstate kinase activity assay; conditions: Compound concentration 10.0 uM
Hep 3B2 = assay: Liver Hep 3B cell line MDS Pharma Services Proliferation Assay; format: functional, cell-based, Homo sapiens
[6] = target: Proto-oncogene tyrosine-protein kinase receptor Ret (Homo sapiens) (UniProt P07949); assay: Ret (h) Upstate kinase activity assay; conditions: Compound concentration 10.0 uM
[7] = target: T1, Serine/threonine-protein kinase Chk1 (Homo sapiens) (UniProt O14757); assay: CHK1 (h) Upstate kinase activity assay; conditions: Compound concentration 10.0 uM
T1 sequence (whole entry): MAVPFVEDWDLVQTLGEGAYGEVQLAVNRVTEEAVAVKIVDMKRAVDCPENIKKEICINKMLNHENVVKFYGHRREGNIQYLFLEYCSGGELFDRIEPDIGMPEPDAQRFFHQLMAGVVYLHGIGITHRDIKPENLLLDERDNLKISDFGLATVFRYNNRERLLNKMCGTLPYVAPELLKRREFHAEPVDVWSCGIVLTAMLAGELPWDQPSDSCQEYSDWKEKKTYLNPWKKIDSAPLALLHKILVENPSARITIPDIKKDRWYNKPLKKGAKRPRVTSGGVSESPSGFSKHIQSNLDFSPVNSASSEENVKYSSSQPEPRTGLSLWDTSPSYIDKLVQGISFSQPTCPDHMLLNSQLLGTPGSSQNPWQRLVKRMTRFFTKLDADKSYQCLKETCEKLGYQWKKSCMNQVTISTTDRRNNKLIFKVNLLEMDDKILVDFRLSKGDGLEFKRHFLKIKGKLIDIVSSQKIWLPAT

Rattus norvegicus = organism: Rattus norvegicus; conditions: Compound concentration 10.0 uM
[8] = target: Serine/threonine-protein kinase N2 (Homo sapiens) (UniProt Q16513); assay: PRK2 (h) Upstate kinase activity assay; conditions: Compound concentration 10.0 uM
[9] = target: Glycogen synthase kinase-3 alpha (Homo sapiens) (UniProt P49840); assay: GSK3alpha (h) Upstate kinase activity assay; conditions: Compound concentration 10.0 uM
[10] = target: RAC-alpha serine/threonine-protein kinase (Homo sapiens) (UniProt P31749); assay: PKBalpha (h) Upstate kinase activity assay; conditions: Compound concentration 10.0 uM
[11] = target: GABA-A receptor; anion channel (Rattus norvegicus) (UniProt O09028+P15431+P18506+P18508+P19969+P20236+P23574+P23576+P28471+P28473+P30191+P62813+P63079+P63138+Q91ZM7+Q9ES14); conditions: Compound concentration 10.0 uM
[12] = target: T2, Mitogen-activated protein kinase 13 (Homo sapiens) (UniProt O15264); assay: SAPK4 (h) Upstate kinase activity assay; conditions: Compound concentration 10.0 uM
T2 sequence (whole entry): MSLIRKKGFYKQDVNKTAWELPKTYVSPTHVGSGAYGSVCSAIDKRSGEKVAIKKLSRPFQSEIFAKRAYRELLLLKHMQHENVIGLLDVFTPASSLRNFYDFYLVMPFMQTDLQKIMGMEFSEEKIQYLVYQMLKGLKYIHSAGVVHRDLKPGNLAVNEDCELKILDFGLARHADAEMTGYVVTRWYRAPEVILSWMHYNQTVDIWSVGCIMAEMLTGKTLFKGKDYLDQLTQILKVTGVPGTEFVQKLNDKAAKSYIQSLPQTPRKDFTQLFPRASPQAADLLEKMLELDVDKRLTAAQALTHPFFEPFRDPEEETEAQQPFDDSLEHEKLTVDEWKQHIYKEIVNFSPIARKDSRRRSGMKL

[13] = target: T3, Dual specificity mitogen-activated protein kinase kinase 6 (Homo sapiens) (UniProt P52564); assay: MKK6 (h) Upstate kinase activity assay; conditions: Compound concentration 10.0 uM
T3 sequence (whole entry): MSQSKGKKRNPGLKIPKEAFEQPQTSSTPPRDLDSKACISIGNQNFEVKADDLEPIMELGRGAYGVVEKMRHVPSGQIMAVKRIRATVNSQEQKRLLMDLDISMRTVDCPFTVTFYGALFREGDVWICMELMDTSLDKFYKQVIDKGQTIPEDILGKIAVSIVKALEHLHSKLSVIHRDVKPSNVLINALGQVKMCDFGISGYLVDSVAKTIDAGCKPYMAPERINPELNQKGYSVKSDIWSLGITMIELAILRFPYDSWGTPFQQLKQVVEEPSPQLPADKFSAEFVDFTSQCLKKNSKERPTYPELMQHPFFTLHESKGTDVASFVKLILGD

[14] = target: Mitogen-activated protein kinase 14 (Homo sapiens) (UniProt Q16539); assay: SAPK2a (h) Upstate kinase activity assay; conditions: Compound concentration 10.0 uM
[15] = target: Serine/threonine-protein kinase PAK 2 (Homo sapiens) (UniProt Q13177); assay: PAK2 (h) Upstate kinase activity assay; conditions: Compound concentration 10.0 uM
[16] = target: Fibroblast growth factor receptor 3 (Homo sapiens) (UniProt P22607); assay: FGFR3 (h) Upstate kinase activity assay; conditions: Compound concentration 10.0 uM
Chain of Fibroblast growth factor receptor 3 (Homo sapiens) (P22607 23-806 limits assumed): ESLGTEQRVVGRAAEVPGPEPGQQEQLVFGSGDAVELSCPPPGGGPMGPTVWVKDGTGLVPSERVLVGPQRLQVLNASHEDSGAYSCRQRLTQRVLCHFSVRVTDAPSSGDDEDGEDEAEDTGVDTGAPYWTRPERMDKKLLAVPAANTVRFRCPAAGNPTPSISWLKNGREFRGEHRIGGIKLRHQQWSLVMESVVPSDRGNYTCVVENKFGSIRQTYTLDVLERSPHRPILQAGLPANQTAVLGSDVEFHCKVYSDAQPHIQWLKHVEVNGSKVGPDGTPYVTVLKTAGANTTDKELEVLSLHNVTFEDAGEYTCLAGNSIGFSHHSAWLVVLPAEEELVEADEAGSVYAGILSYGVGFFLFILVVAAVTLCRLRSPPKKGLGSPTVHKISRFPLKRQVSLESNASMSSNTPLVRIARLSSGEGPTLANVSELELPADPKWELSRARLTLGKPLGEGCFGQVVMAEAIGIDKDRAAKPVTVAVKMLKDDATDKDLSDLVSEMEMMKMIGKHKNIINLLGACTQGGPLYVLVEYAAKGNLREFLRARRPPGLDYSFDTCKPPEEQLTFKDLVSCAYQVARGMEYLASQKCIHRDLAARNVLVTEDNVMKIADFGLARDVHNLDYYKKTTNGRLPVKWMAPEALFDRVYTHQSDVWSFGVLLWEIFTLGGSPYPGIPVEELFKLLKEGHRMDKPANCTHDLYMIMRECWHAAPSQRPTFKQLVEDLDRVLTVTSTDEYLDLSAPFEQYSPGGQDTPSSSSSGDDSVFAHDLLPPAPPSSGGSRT

Chain of Proto-oncogene tyrosine-protein kinase receptor Ret (Homo sapiens) (P07949 whole entry): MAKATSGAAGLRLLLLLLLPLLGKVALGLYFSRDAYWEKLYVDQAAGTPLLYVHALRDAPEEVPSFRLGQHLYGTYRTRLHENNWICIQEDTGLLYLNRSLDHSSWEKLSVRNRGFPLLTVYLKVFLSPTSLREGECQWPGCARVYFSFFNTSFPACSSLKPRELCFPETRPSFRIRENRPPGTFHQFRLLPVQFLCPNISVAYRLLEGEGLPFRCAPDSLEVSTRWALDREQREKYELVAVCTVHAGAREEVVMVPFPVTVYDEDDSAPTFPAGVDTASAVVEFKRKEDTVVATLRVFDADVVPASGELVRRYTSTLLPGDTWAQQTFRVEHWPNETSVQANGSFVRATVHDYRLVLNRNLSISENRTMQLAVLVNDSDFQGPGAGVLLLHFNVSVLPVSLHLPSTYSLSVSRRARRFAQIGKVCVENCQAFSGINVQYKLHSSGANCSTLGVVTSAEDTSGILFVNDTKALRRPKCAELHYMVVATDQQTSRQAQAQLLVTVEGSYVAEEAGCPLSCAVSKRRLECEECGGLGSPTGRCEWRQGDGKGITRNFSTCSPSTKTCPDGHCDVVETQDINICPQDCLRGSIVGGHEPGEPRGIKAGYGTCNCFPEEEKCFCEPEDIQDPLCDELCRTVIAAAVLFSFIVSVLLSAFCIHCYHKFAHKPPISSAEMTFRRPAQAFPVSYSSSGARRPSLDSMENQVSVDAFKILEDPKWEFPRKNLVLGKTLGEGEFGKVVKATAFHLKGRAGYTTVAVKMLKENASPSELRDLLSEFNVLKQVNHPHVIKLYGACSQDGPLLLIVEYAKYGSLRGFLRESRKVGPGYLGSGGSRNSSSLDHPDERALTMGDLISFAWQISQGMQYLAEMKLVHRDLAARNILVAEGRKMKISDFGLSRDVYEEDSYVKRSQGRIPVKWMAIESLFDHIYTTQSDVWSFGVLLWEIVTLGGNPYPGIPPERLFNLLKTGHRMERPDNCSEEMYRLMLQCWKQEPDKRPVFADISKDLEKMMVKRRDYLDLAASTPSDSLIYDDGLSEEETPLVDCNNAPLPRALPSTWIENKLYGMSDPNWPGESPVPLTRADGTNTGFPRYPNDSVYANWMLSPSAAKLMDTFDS
Chain of Tyrosine-protein kinase ABL2 (Mus musculus) (Q4JIM5 whole entry): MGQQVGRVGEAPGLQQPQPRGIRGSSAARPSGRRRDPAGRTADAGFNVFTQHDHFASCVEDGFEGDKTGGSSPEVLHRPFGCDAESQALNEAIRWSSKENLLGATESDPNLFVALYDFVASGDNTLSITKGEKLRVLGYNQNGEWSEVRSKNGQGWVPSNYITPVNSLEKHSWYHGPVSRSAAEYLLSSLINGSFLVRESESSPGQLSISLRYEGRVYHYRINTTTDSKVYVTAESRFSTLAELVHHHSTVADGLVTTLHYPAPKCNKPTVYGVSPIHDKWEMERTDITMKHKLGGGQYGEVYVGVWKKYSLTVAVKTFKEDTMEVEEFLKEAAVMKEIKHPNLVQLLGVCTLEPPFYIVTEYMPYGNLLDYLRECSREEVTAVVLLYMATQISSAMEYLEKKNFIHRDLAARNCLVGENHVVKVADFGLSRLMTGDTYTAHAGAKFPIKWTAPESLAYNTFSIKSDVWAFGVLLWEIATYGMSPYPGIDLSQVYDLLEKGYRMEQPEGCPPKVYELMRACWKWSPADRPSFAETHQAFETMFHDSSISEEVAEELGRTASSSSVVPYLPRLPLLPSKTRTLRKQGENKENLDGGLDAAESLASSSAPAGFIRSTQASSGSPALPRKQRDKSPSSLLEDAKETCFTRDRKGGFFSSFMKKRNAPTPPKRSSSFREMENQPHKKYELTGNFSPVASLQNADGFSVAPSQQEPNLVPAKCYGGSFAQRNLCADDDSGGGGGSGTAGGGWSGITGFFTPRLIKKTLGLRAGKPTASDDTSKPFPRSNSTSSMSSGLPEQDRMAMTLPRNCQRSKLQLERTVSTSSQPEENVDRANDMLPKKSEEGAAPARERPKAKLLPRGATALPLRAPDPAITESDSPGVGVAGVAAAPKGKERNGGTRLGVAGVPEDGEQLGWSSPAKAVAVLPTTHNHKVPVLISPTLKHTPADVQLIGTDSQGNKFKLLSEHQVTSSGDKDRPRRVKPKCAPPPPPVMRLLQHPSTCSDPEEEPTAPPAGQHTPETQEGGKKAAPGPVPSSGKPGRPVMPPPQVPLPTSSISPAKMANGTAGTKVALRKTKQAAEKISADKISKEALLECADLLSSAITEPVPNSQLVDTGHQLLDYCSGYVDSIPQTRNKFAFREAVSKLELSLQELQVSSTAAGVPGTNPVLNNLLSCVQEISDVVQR
Chain of Alpha-1D adrenergic receptor (Homo sapiens) (P25100 whole entry): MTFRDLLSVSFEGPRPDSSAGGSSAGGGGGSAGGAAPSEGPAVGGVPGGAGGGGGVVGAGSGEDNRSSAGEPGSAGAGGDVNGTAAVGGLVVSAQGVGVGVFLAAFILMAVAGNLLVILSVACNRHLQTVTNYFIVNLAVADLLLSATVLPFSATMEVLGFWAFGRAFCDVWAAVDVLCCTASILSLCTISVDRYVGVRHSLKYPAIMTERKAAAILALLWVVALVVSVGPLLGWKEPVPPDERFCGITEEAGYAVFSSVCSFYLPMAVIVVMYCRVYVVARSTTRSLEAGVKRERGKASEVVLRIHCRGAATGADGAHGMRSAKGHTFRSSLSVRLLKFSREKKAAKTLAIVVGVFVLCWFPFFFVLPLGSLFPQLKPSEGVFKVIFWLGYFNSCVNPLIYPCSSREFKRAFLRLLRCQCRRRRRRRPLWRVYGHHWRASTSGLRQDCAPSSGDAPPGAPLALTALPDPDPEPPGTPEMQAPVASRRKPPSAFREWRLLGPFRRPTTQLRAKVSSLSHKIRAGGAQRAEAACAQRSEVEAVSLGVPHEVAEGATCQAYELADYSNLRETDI
Chain of Serine/threonine-protein kinase PAK 2 (Homo sapiens) (Q13177 whole entry): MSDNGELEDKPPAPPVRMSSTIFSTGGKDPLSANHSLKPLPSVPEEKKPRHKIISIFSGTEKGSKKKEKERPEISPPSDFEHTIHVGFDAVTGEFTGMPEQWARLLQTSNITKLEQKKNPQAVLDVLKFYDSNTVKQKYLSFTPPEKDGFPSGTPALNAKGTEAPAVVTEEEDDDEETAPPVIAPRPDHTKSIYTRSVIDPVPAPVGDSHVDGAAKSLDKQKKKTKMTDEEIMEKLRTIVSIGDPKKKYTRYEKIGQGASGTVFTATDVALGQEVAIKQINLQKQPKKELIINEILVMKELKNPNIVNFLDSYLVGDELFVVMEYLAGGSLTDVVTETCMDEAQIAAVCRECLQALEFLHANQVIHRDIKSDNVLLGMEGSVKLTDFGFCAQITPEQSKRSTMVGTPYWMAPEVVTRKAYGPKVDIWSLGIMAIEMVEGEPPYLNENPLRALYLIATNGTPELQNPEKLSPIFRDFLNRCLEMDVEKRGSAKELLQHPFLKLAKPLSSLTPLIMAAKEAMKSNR
Chain of Mitogen-activated protein kinase 14 (Homo sapiens) (Q16539 whole entry): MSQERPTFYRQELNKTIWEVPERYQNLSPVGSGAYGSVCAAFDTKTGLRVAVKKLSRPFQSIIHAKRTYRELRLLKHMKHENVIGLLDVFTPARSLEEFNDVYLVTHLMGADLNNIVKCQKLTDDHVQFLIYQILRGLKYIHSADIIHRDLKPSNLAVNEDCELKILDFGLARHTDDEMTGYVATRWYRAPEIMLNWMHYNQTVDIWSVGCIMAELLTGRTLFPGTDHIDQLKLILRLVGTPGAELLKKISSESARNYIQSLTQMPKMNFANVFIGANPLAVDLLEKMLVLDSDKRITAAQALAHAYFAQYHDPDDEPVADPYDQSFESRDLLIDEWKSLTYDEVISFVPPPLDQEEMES
Chain of Glycogen synthase kinase-3 alpha (Homo sapiens) (P49840 2-483 limits assumed): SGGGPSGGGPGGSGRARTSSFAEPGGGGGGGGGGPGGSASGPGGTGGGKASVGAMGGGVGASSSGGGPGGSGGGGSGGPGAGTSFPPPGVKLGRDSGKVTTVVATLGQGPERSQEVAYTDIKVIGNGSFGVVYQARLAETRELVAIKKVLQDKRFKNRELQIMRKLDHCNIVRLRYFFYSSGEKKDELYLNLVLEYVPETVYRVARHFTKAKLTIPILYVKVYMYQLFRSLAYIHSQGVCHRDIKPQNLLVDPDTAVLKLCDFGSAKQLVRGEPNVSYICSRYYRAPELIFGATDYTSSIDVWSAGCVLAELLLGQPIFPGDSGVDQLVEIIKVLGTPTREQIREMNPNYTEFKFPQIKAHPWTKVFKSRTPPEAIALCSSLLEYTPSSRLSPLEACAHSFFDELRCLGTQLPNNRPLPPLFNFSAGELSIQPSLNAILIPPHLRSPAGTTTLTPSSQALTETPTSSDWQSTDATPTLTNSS

Cn1cc(Cl)c2c(Oc3c(F)cc(Nc4cc(Cl)nc(N)n4)cc3F)ccnc21 [BAY-4900]
inhibition [1]: -6.73% | residual activity [2]: 98%

Cc1c[nH]c2nccc(Oc3c(F)cc(Nc4cc(Cl)nc(N)n4)cc3F)c12 [BAY-549]
inhibition [3]: 95% | IC50 (SK-MEL-5; Homo sapiens, SK-MEL-5): 16 µM | TGI (SK-MEL-5; Homo sapiens, SK-MEL-5): 50 µM | CC50 (SK-MEL-5; Homo sapiens, SK-MEL-5, read-out: LC50 (the source's name)): > 100 µM | Mean % growth (n = 2) for 100.0 µM probe concentration (SK-MEL-5; ± SEM 1 % growth): -32% | Mean % growth (n = 2) for 0.01 µM probe concentration (SK-MEL-5; ± SEM 3 % growth): 106% | Mean % growth (n = 2) for 1.0 µM probe concentration (SK-MEL-5; ± SEM 3 % growth): 98% | Mean % growth (n = 2) for 10.0 µM probe concentration (SK-MEL-5; ± SEM 6 % growth): 65% | Mean % growth (n = 2) for 0.1 µM probe concentration (SK-MEL-5; ± SEM 8 % growth): 89% | IC50 (PC-6; Homo sapiens, PC-6): 4.2 µM | TGI (PC-6; Homo sapiens, PC-6): 18 µM | CC50 (PC-6; Homo sapiens, PC-6, read-out: LC50 (the source's name)): 76 µM | Mean % growth (n = 2) for 0.1 µM probe concentration (PC-6; ± SEM 5 % growth): 84% | Mean % growth (n = 2) for 100.0 µM probe concentration (PC-6; ± SEM 6 % growth): -65% | Mean % growth (n = 2) for 10.0 µM probe concentration (PC-6; ± SEM 7 % growth): 32% | Mean % growth (n = 2) for 0.01 µM probe concentration (PC-6; ± SEM 9 % growth): 105% | Mean % growth (n = 2) for 1.0 µM probe concentration (PC-6; ± SEM 9 % growth): 70% | inhibition [4]: 36% | IC50 (A549; Homo sapiens, A549): 1.5 µM | TGI (A549; Homo sapiens, A549): 25 µM | CC50 (A549; Homo sapiens, A549, read-out: LC50 (the source's name)): > 100 µM | Mean % growth (n = 2) for 1.0 µM probe concentration (A549; ± SEM 2 % growth): 42% | Mean % growth (n = 2) for 10.0 µM probe concentration (A549; ± SEM 2 % growth): 7% | Mean % growth (n = 2) for 100.0 µM probe concentration (A549; ± SEM 3 % growth): -15% | Mean % growth (n = 2) for 0.01 µM probe concentration (A549; ± SEM 4 % growth): 103% | Mean % growth (n = 2) for 0.1 µM probe concentration (A549; ± SEM 4 % growth): 97% | inhibition [5]: 16% | Mean % growth (n = 2) for 10.0 µM probe concentration (Hep 3B2): 11% | IC50 (Hep 3B2; Homo sapiens, Hep3B): 1.3 µM | TGI (Hep 3B2; Homo sapiens, Hep3B): 45 µM | CC50 (Hep 3B2; Homo sapiens, Hep3B, read-out: LC50 (the source's name)): > 100 µM | Mean % growth (n = 2) for 0.1 µM probe concentration (Hep 3B2; ± SEM 3 % growth): 82% | Mean % growth (n = 2) for 100.0 µM probe concentration (Hep 3B2; ± SEM 5 % growth): -4% | Mean % growth (n = 2) for 1.0 µM probe concentration (Hep 3B2; ± SEM 6 % growth): 51% | Mean % growth (n = 2) for 0.01 µM probe concentration (Hep 3B2; ± SEM 8 % growth): 90% | inhibition [6]: 52% | inhibition [7]: 9% | inhibition (Rattus norvegicus): 24.9% | inhibition [8]: 70% | inhibition [9]: 13% | inhibition [10]: 84% | inhibition [11]: -8.68% | inhibition [12]: 16% | inhibition [13]: 6% | inhibition [14]: 21% | inhibition [15]: 2% | inhibition [16]: 12%
